Reference: PMC11933534, “Favipiravir induces HuNoV viral mutagenesis and infectivity loss with clinical improvement in immunocompromised patients” (Clinical Immunology (Orlando, Fla.), 2024)
Like-named read-outs stand apart in the source and are kept apart here.

How the values were obtained:
HuNoV [1] = experiment: Stool HuNoV viral load (RT-qPCR Ct) in treated patients; type: in vivo, human
[2] = Adverse events during off-label treatment of patients; type: in vivo, human
HuNoV GII.4 Sydney[P16] = experiment: Antiviral treatment of HuNoV-infected zebrafish larvae (viral RNA by RT-qPCR); type: in vivo; conditions: for Reduction in viral load with post-treatment sample: favipiravir 25 ng, inoculum P1 SS F carrying RdRp A44S change
Procedure: (§1) First, compounds were dissolved in 100% DMSO (spectroscopy grade). To determine the correct dose for pericardial injections in zebrafish larvae of all compounds (i.e. favipiravir, tizoxanide and their 1:1 combination), a weight-dependent conversion was applied. For this purpose, the optimized and increased clinical dose of 400 mg favipiravir TDS and 200 mg tizoxanide BD was used. To ensure the weight-converted dose was not toxic for zebrafish larvae of 3 days post fertilization, a toxicity analysis was performed. […] The following parameters were investigated: touch response, morphology, posture, oedema, signs of necrosis, swim bladder and heartbeat.
(§2) Zebrafish larvae were anesthetized and positioned as described previously, in short: zebrafish larvae of 3 days post fertilization were anesthetized and transferred to an agarose mold to position them on their dorsal side with the yolk facing upward. In every experiment, the injection needle was calibrated to ensure the precision of the injection volume. Microinjection was performed using an M3301R Manual Micromanipulator (WPI, Friedberg, Germany) and a FemtoJet 4i pressure microinjector (Eppendorf, Hamburg, Germany). Compound-treated zebrafish larvae received a 1 nL (1.5 nL in case of the combination treatment) injection of compound in the pericardial cavity, while negative control zebrafish were injected with an equal volume of DMSO. Subsequently, the zebrafish larvae received an injection of 3 nL virus in the yolk. After both injections, zebrafish larvae were transferred to 6-well plates with Danieau's solution and further maintained in an incubator with a 14/10 h light/dark cycle at 32 °C.
(§3) Zebrafish larvae were homogenized (Precellys 24, Bertin Technologies, Montigny-le-Bretonneux, France), the homogenates were cleared by centrifugation (5 min, 9000 g), and RNA was extracted using the Direct-zol RNA kit (Zymo Research, Irvine, CA, USA), according to the manufacturer's protocol. RNA levels were quantified with a one-step RT-qPCR (iTaq Universal Probes One-Step Kit, Bio-Rad, Hercules, CA, USA) as previously described.

zebrafish larvae = experiment: Toxicity analysis in zebrafish larvae; type: in vivo; conditions: 25 ng favipiravir or 4 ng tizoxanide, drug administered alone
Procedure: as §1

HuNoV [3] = experiment: Infectivity of P1 stool-sample HuNoV in zebrafish larvae (fold increase, ID50); type: in vivo
Procedure: Human stool samples, positive for HuNoV, were obtained from the Great Ormond Street Hospital for Children (United Kingdom) and the University Hospital of Leuven (Belgium). An aliquot of 100 mg of each stool sample was re-suspended in 1 mL of sterile PBS, thoroughly vortexed, and centrifuged (5 min, 1000 g), supernatant was harvested and stored at −80 °C. This virus suspension was used for RNA extractions, quantification by RT-qPCR and injections in the zebrafish larvae. HuNoV RNA was extracted from 100 μL of PBS suspension using the Direct-zol RNA kit (Zymo Research, Irvine, CA, USA), according to the manufacturer's protocol. The original concentrations of the stool samples were as followed: SS A: 5.52*10^9 copies/g stool, SS B: 1.34*10^11 copies/g stool, SS C: 2.07*10^11 copies/g stool, SS D: 3.07*10^10 copies/g stool, SS E: 1.23*10^12 copies/g stool, SS F: 3.12*10^11 copies/g stool and GII.4 Sydney[P16] (in house collection KU Leuven): 1.46*10^10 copies/g stool.
as §2, §3
To start, all stool samples were brought to the same theoretical inoculum (± 1000 viral RNA copies/3 nL injection volume) by dilution with PBS. To compare the viral infectivity between different stool samples, multiple methods were used; A) calculating the fold increase by taking the input based on the viral load of P1's stool samples and the amount of viral RNA copies/zebrafish at the peak of replication into account which are both quantified by RT-qPCR and B) determining the 50% infectious dose for each stool sample based on a well-established method adapted to the zebrafish replication model by diluting the collected stool samples to evaluate at which dilution the infectivity is lost.

mouse norovirus = system: mouse norovirus; design: method as in PMID 22809499; conditions: 95%CI: 35–43 μg/mL; cited from earlier work
HuNoV [4] = system: HuNoV; design: method as in PMID 30485769; conditions: P2 (CVID); favipiravir 1200 mg 12-hourly, three courses; cited from earlier work
HuNoV [5] = system: HuNoV; design: method as in PMID 30485769; conditions: P2; favipiravir 1200 mg 12-hourly, three courses; cited from earlier work
[6] = design: method as in PMID 30485769; conditions: P2; favipiravir 1200 mg 12-hourly; caused treatment interruptions; cited from earlier work

SMILES: NC(=O)c1nc(F)c[nH]c1=O [favipiravir]
- Stool HuNoV viral load (HuNoV [1]; P3, favipiravir 12-hourly 1200 mg, before treatment max Ct 21.2): 30.9 Ct
- Stool HuNoV viral load (HuNoV [1]; P4, favipiravir 400 mg 8-hourly + nitazoxanide 200 mg 12-hourly, max Ct, before treatment max Ct 17.9): 27.8 Ct
- Adverse event ([2]; P1, favipiravir 200 mg 8-hourly + nitazoxanide 200 mg 12-hourly, suspected to be drug-induced, several medications discontinued): conjugated hyperbilirubinaemia
- Recurrence of conjugated hyperbilirubinaemia ([2]; P1, restarted favipiravir 400 mg 8-hourly + nitazoxanide 200 mg 12-hourly): did not recur
- Adverse event ([2]; P3, favipiravir 12-hourly 400 mg increased to 800 mg, transaminitis did not recur): nail discolouration and frequent headaches
- Adverse event ([2]; P3, favipiravir 12-hourly 1200 mg, discontinued after one month): progressing transaminitis
- Adverse event ([2]; P4, after 2 months of favipiravir 400 mg 8-hourly + nitazoxanide, nail discolouration reversed after discontinuation): nail discolouration and intermittent jaundice
- Reduction in viral RNA copies/zebrafish (HuNoV GII.4 Sydney[P16]; favipiravir 25 ng single pericardial injection, inoculum P1 pre-treatment SS A, day 3 pi (peak), p = 0.0263): 1.6 log10
- Reduction in viral load with post-treatment sample (HuNoV GII.4 Sydney[P16]): no reduction in viral load
- Reduction in viral load with post-treatment sample (HuNoV GII.4 Sydney[P16]; listed as Favipiravir): cannot reduce
- Reduction of HuNoV replication (HuNoV GII.4 Sydney[P16]; monotherapy favipiravir 25 ng or tizoxanide 4 ng, in-house GII.4 Sydney[P16] stool sample, peak 2 dpi, p = 0.0006 and 0.001): > 1 log10
- Toxicity in the zebrafish larval model (zebrafish larvae): did not show toxicity
- Fold increase in viral RNA, 0 to 2 dpi (HuNoV [3]; P1 SS B, 2 days into favipiravir treatment (after 10 days ribavirin), ~1000 genome copies, pre-treatment SS A 321 ± 177): 143 ± 76 fold
- 50% infectious dose (ID50) (HuNoV [3]; P1 SS B, 2 days into treatment, pre-treatment SS A 289): 697 viral RNA copies/zebrafish
- Fold increase in viral RNA, 0 to 2 dpi (HuNoV [3]; P1 SS C, 125 days into favipiravir treatment, ~1000 genome copies, pre-treatment SS A 321 ± 177): 53 ± 31 fold
- 50% infectious dose (ID50) (HuNoV [3]; P1 SS C, 125 days into treatment, pre-treatment SS A 289): 461 viral RNA copies/zebrafish
- 50% infectious dose (ID50) (HuNoV [3]; P1 SS D, after a 2-month treatment gap): 338 viral RNA copies/zebrafish
- Fold increase in viral RNA, 0 to 2 dpi (HuNoV [3]; P1 SS D, after a treatment gap of 2 months, ~1000 genome copies): 177 ± 55 fold
- Fold increase in viral RNA, 0 to 2 dpi (HuNoV [3]; P1 SS E, 6 months after re-introduction at higher favipiravir dose): 75 ± 21 fold
- 50% infectious dose (ID50) (HuNoV [3]; P1 SS E, after treatment reintroduction (higher dose)): 880 viral RNA copies/zebrafish
- Fold increase in viral RNA, 0 to 2 dpi (HuNoV [3]; P1 SS F, 7 months after re-introduction at higher favipiravir dose): 47 ± 16 fold
- 50% infectious dose (ID50) (HuNoV [3]; P1 SS F, after treatment reintroduction (higher dose)): 1110 viral RNA copies/zebrafish
- Increase in the 50% infectious dose in HuNoV shed during treatment (HuNoV [3]; P1 stool samples over one year of treatment): ~1 log10
- EC50 for mouse norovirus in vitro (mouse norovirus): EC50 Favipiravir for mouse norovirus (39 μg/mL [35])
- Clinical response (HuNoV [4]): Weight gain, reduced stool output, decreased adjunctive loperamide
- Change in stool HuNoV viral load (HuNoV [5]): modest decrease in HuNoV VLs, but not viral clearance
- Adverse event [6]: recurring transaminitis of undetermined aetiology
